What was measured:
HEK293T cells [1] = assay: cAMP induction assay (pGloSensor-22F); type: cell-based, human; details: 2.5 and 25 µg/mL, pGloSensor luminescence, n = 4
Method: (§1) Figure 3 Melittin derivates alter the cellular concentration of cyclic adenosine monophosphate (cAMP). (A) For the cAMP induction assay, HEK293T cells transfected with pGloSensor-22F cAMP plasmid were treated with melittin derivates (0.25, 2.5, 25 µg/mL) in presence of the pGloSensor cAMP reagent, and luminescence was detected. (B) For the cAMP inhibition assay, HEK293T cells transfected with pGloSensor-22F cAMP plasmid were treated with melittin derivates (0.25, 2.5, 25 µg/mL) in presence of the pGloSensor cAMP reagent, stimulated with 5 µM forskolin, and luminescence was detected. Data are expressed as mean ± SEM. n = 4, * p ≤ 0.05 versus control.
(§2) HEK293T cells were transfected with pGloSensor-22F cAMP plasmid (E2301, Promega, Walldorf, Germany) using turbofect reagent (Thermofisher Scientific, Frankfurt am Main, Germany). […] For the induction assay (step one), the luminescence was detected (background, 3 measurements every 5 min) and then the melittin peptides (0.25, 2.5, 25 µg/mL) or 5 µM forskolin were added. The luminescence was detected (3 measurements every 5 min) using the plate reader (Spark, Tecan, Männedorf, Switzerland). For the inhibition assay (step tow), the melittin peptide-treated cells were then incubated with 5 µM forskolin and the luminescence was detected (3 measurements every 5 min). […]

HEK293T cells [2] = assay: cAMP inhibition assay (forskolin-stimulated, pGloSensor-22F); type: cell-based, human; details: 5 µM forskolin, 2.5 and 25 µg/mL, pGloSensor luminescence, n = 4
Method: as §1, §2

calmodulin = details: cited from earlier work
Source text: These two systems are rarely independent but are often antagonistic, sometimes synergistic, or occasionally redundant. Ca^2+ is never elevated without a possible consequence—either positive or negative— ...

[3] = test system: IL-1β-activated rat knee joint cells; details: by inhibiting I-κB degradation and NF-κB migration into the nucleus; cited from earlier work
Source text: (§3) LPS induces iNOS expression and the release of NO in RAW264.7 macrophages. […] Previously, Tang et al. reported that Melt prev ...

[4] = test system: LPS-activated BV2 microglia; details: by blocking NF-κB translocation; cited from earlier work
Source text: as §3

[5] = test system: triple-negative and HER2-enriched breast cancer subtypes; details: cited from earlier work
Source text: It was also reported that a positively charged C-terminal peptide end is responsible for the plasma membrane ...

[6] = cited from earlier work
Source text: Therefore, the identification of biologically active derivatives of melittins with minimal toxicity to healthy cells is important for developing new pharmacological treatment options. In this study, we applied a broad in vitro screening approach of melittin variants from the honeybee and earlier solitary bee lineages to assess whether these ...

[7] = test system: TNF-activated EC monolayer; assay: Adhesion of THP-1 leukocytes onto TNF-activated endothelial cells; type: cell-based, human; details: peptide 30 min, TNF 10 ng/mL 24 h, THP-1 adhesion 5 min, static, fluorescence, n = 2
Method: Figure 4 Influence of melittin derivates on inflammation-associated cell functions. (A,B) For the NO induction assay (A), RAW264.7 cells were treated with melittin peptides in the indicated concentrations for 24 h. For the NO inhibition assay (B), RAW264.7 cells were pretreated with melittin peptides in the indicated concentrations for 30 min and then stimulated with 100 ng/mL LPS for 24 h. NO was detected in the supernatant using the Griess method. […] THP-1 cell adhesion under static conditions. HUVECs were grown to confluence, preincubated with bee venoms for 30 min, and activated with TNF (10 ng/mL) for 24 h. For the leukocyte adhesion assay, untreated THP-1 cells were stained with CellTracker Green and were allowed to adhere to the treated HUVECs for 5 min. The adhesion of leukocytes onto Ecs was quantified by fluorescence measurements for all cell adhesion experiments. Data are expressed as means ± SEM, (A,B) n = 3, (C) n = 2. * p ≤ 0.05 vs. TNF (positive) control.
For the investigation of leukocyte adhesion under static conditions, HMEC-1 cells were seeded into 96-well plates and cultured until they became confluent. […] Then, the fluorescence signal from adherent THP-1 cells was measured by a Tecan Infinite F200 Pro microplate reader (Tecan, Männedorf, Switzerland) (excitation: 485 nm, emission: 535 nm).

MDA-MB-231 cells = assay: Apoptosis of MDA-MB-231 cells (propidium iodide, flow cytometry); type: cell-based, human; details: MDA-MB-231, 25 µg/mL, 24 h, 48 h and 72 h, PI, n = 2
Method: Figure 5 Anti-proliferative and apoptotic effect of melittin derivates on the triple-negative breast cancer cell line MDA-MB-231. (A) For the proliferation assay, cells were grown in low density and were treated after 24 h with melittin peptides at a concentration of 25 µg/mL for 72 h. Cells were stained with crystal violet solution. The amount of DNA-bound crystal violet was detected by absorbance measurements. (B) Melt3, 4, and Xac4, which are non-toxic to healthy cells, were further used to test effects on proliferation at 24 h (left) and 48 h (right) at different concentrations. (C) The effects on apoptosis were detected by flow cytometry after 24 h (left), 48 h (middle), and 72 h (right) of treatment. The number of apoptotic cells was determined by staining with propidium iodide (PI). Data are expressed as mean ± SEM. n = 2, * p ≤ 0.05 versus control. Sts, staurosporin 1 µM.
Apoptosis of primary HUVECs was detected according to the method of Nicoletti et al.. […] The percentage of cells with sub-diploidic DNA content was measured using a FACSVerse flow cytometer (BD Biosciences, Heidelberg, Germany).

Row | Substance | prevention of cAMP synthesis, unstimulated cells (HEK293T cells [1]) | prevention of cAMP synthesis, forskolin-stimulated cells (HEK293T cells [2]) | inhibition of calmodulin function (calmodulin) | NF-κB activation [3] | iNOS expression and NO synthesis [4] | apoptosis of breast cancer subtypes [5] | degradation in the blood [6] | adhesion of THP-1 leukocytes onto endothelial cells [7] | apoptosis / cancer cell death (MDA-MB-231 cells)
1 | melittin [Melt, reference compound] | almost completely prevented cAMP synthesis | almost completely prevented cAMP synthesis | competitive inhibitor of the calmodulin function | prevents NF-κB activation | reduced LPS-activated BV2 microglia iNOS expression and NO synthesis | induce apoptosis | fast degradation in the blood |  | 
2 | xylopin [Xac4] |  |  |  |  |  |  |  | reducing the inflammation-associated interaction of endothelial cells with leukocytes | trend of decreased proliferation and increased apoptosis

From paper PMC9786170, “The Pharmacological Potential of Novel Melittin Variants from the Honeybee and Solitary Bees against Inflammation and Cancer” (Toxins, 2022)
